Experimental data: patent US20120064008A1, “COMPOSITIONS FOR THE TREATMENT OF METASTATIC CANCER AND METHODS OF USE THEREOF” (priority 2009, published 2012)
Where two headings read alike, the source gives them in different places.

Experiments:
[1] = tested on: DU145 human prostate cancer cells; assay: Cyquant cell viability assay, DU145; format: cell-based; conditions: read-out: ED50 DU145
Description: (§1) The cytotoxic effects of paclitaxel, fenbendazole, and albendazole were compared in paclitaxel-resistant PC3-TR and DU145-TR prostate cancer cells with their paclitaxel-sensitive counterparts, PC3 and DU145 cells. Cells were treated for 72 hours with vehicle, paclitaxel, fenbendazole or albendazole in various doses. Cell viability was measured using Cyquant assay, and percent control was calculated by dividing the fluorescent reading from drug-treated cells with those from vehicle-treated cells, indicating percentage of cell survival.

PC3-TR cells [2] = assay: Normalized mitotic index, PC3-TR; format: cell-based, human; conditions: 1 μM
PC3 cells [3] = assay: Normalized mitotic index, PC3; format: cell-based, human; conditions: 1 μM
[4] = tested on: AT6.1 Dunning rat prostate carcinoma; assay: Tumor burden by blood Gaussia luciferase assay in AT6.1 model; format: in vivo, nu/nu mice; conditions: 100 mg/kg; until day 22; FIG. 9
Text: Similar to the survival model, treatment was not begun until day 5 when micrometastases were confirmed growing in the lung. For this approach, the AT6.1 cells were engineered to express secreted Gaussia luciferase enzyme. Using measurement of luciferase activity from the peripheral blood as an indicator of overall tumor burden, a significant reduction of tumor burden in the lungs of benzimidazole-treated animals when compared to vehicle-treated mice was observed. After 22 days, the mice were sacrificed and the lungs examined for viable tumor colonies.
Blood Gaussia luciferase assay was performed as described in the literature. Briefly, 10-20 μL peripheral blood was collected from the animals once a week via the retro-orbital vein. Secreted GAR luciferase activity was measured using a luminometer by adding 100 μL of 100 μM coelentrazine (Prolume, Nanolight, #303) to 5 μL blood and 2 μL of 20 mM EDTA. Relative luciferase reading from the blood collected represents the tumor burden in each animal. The reading was performed with blood collected at day 19 post inoculation when all mice were still alive.

PC3 cells [5] = assay: % apoptotic cells, PC3; format: cell-based, human; conditions: 1 μM
PC3MLN4 cells = assay: Annexin V/7-AAD apoptosis by flow cytometry, PC3MLN4; conditions: for apoptotic cells in PC3MLN4: 1 μM, combination carrier
Description: Annexin V/7-amino-actinomycin D labeling was done according to the manufacturer's instructions (BD Pharmingen, 559763) and samples were analyzed by flow cytometry. Briefly, the cells were treated for 72 hours with either vehicle or 1 μM benzimidazole drugs, solubilized in the combination carrier. Cells were trypsinized and washed with PBS before resuspending in assay binding buffer. Annexin V and 7-amino-actinomycin labeling was performed at room temperature for 15 minutes before analysis by flow cytometry (BD FACScan). Cells positively stained for annexin V in the lower right quadrant and upper right quadrant indicate early and late apoptosis, respectively.
All benzimidazole drugs were solubilized in the combination carrier. After 72 hours, the cells were analyzed by annexin V/7-AAD staining. Cells positively stained for annexin V in the lower right quadrant and upper right quadrant indicate early and late apoptosis, respectively.

PC3-TR cells [6] = assay: % apoptotic cells, PC3-TR; format: cell-based, human; conditions: 1 μM
[7] = tested on: paclitaxel-resistant PC3-TR prostate cancer cells; assay: Cyquant cell viability assay, PC3-TR; format: cell-based, human; conditions: Homo sapiens, read-out: ED50 PC3-TR
Description: as §1

DU145 cells [8] = assay: Normalized mitotic index, DU145; format: cell-based, human; conditions: 1 μM
DU145 cells [9] = assay: % apoptotic cells, DU145; format: cell-based, human; conditions: 1 μM
AT6.1 cells = assay: Normalized mitotic index (histone H3 phospho-Serine-28), AT6.1; format: cell-based; conditions: Rattus norvegicus, normalized against vehicle-treated cells
Text: The mitotic index for each agent was normalized against those obtained from vehicle-treated cells, and compared with the activity of paclitaxel, a known inducer of mitotic arrest.

[10] = tested on: PC3MLN4 human prostate cancer cells; assay: Cyquant cell viability assay, PC3MLN4; conditions: for EC50: Homo sapiens, 72 h, read-out: ED50 PC3MLN4 DMSO
Description: PC3M and PC3MLN4 cells were treated with vehicle, fenbendazole in DMSO, and fenbendazole in DMSO/NMP/TWEEN®-80/CrEL in varying doses for 72 hours. Cell viability assays using Cyquant reagent (Invitrogen, C7026) were performed as described in the literature. […] cells were seeded in 96 well plates overnight, before treated with either vehicle or benzimidazole solubilized in DMSO alone or in DMSO (12.5%)/NMP ([…])/TWEEN®-80 (25%)/Cr-EL (25%) for 72 hours. Cells were harvested by removing the media, washing once with phosphate buffered saline (PBS) and freezing at −80° C. for overnight. After thawing to room temperature, Cyquant reagent were prepared and added to the wells and the fluorescence intensity were measured with a spectrometer at 485 nm. Percent control was calculated by dividing the reading from drug-treated cells with the reading from vehicle-treated cells.
ED50 values were calculated from dose-effect analysis performed with Compusyn using data from the Cyquant cell viability assays.
ED50 values were calculated from dose-effect analysis performed with Compusyn using data from the Cyquant cell viability assays. All benzimidazoles drugs were solubilized in the combination carrier.

[11] = tested on: MES-SA human uterine sarcoma cells; assay: Cell viability, MES-SA; format: cell-based; conditions: read-out: ED50 MES-SA
Text: Benzimidazoles retain their anti-tumor activity in these paclitaxel-resistant cells, with higher potency when compared to the parental cells (see Table 4). Cells resistant to microtubule-stabilizing drugs such as the taxanes are more susceptible to microtubule-disrupting agents. To confirm this, human uterine sarcoma MES-SA/Dx5 cells, which are cross-resistant to various chemotherapeutic agents, including the microtubule-disrupting agents vincristine and colchicine, were used.

| SMILES | Normalized mitotic index (6 hours) PC3-TR (PC3-TR cells [2]) | Normalized mitotic index (6 hours) PC3 (PC3 cells [3]) | tumor burden compared to the control [4] | % Apoptotic cells (72 hours) PC3 (PC3 cells [5]) [%] | apoptotic cells in PC3MLN4 (PC3MLN4 cells; 72 hours) [%] | % Apoptotic cells (72 hours) PC3-TR (PC3-TR cells [6]) [%] | Normalized mitotic index (6 hours) DU145 (DU145 cells [8]) | % Apoptotic cells (72 hours) DU145 (DU145 cells [9]) [%] | EC50 [10] [µM] | EC50 [11] [nM] | also measured |
| --- | --- | --- | --- | --- | --- | --- | --- | --- | --- | --- | --- |
| CCCSc1ccc2nc(NC(=O)OC)[nH]c2c1 [Albendazole, albendazole] | 1.56 | 1.27 | significant reduction in tumor burden | 13.2 | 29.7 | 25.8 | 1.93 | 27 | 4.68 | 1480 | EC50 ([1]; DU-145, 72 h): 2.41 µM; cytotoxic activity via apoptosis in highly metastatic prostate cancer cells (PC3MLN4 cells; 72 hours, annexin V): induction of apoptosis; EC50 ([7]; 72 h): 800 nM; fold induction at 1 µM (AT6.1 cells; read-out: Normalized mitotic index AT6.1, at 1 μM): > 1; cytotoxicity in the combination carrier compared to DMSO alone ([10]; PC3MLN4 cells, 72 hours): greater cytotoxicity; cytotoxicity in highly metastatic cells relative to PC-3M ([10]; PC-3MLN4 (b184 also AT6.1) relative to PC-3M): greater cytotoxicity |
| COC(=O)Nc1nc2ccc(Sc3ccccc3)cc2[nH]1 [Fenbendazole, fenbendazole] | 1.48 | 1.26 | significant reduction in tumor burden | 16.1 | 31.4 | 34.4 | 1.47 | 26 | 1.93 | 3040 | EC50 ([1]; DU-145, 72 hours): 10.7 µM; cytotoxic activity via apoptosis in highly metastatic prostate cancer cells (PC3MLN4 cells): induction of apoptosis; EC50 ([7]; 72 hours, paclitaxel-resistant): 320 nM; fold induction at 1 µM (AT6.1 cells; at 1 μM, read-out: Normalized mitotic index AT6.1): > 1; cytotoxicity in the combination carrier compared to DMSO alone [10]: greater cytotoxicity; reduction in ED50, DNTC compared to DMSO, PC-3MLN4 ([10]; solubilized in DNTC vs DMSO): ~2 fold |
